Experimental data reported in US7833805B2, “Selectively permeable membranes on porous substrates” (University of Cincinnati, priority 2004, dated 2010).

What was measured:
gastric H/K ATPase [1] = biological target: T1, gastric H/K ATPase (Oryctolagus cuniculus, UniProt P27112); assay: H+ transport (acidification) by rabbit gastric H/K ATPase vesicles reconstituted in phospholipid-coated PC filters; assay type: biochemical; settings: 100 μM SCH28080, rabbit gastric vesicles, P<0.02
T1 construct: Hog and stimulated rabbit gastric membrane vesicles are isolated according to methods known in the art; from tissue; host or cells: stimulated rabbit gastric membrane vesicles
Protocol: (§1) Hog and stimulated rabbit gastric membrane vesicles are isolated according to methods known in the art (Saccomani et al. Biochim. Biophys. Acta 465 (1977) 311-330, Cuppoletti, et al. J. Biol. Chem. 259 (1984) 14952-1 4959). A lipid bilayer is made on 0.4 μm polycarbonate filters (area=0.11 cm^2) in Multiscreen Caco-2 filter plates. […] of 40 mg/ml 3:1 POPS:POPE in n-decane is added to the filter (inner well) and after 30 min 100 mM K-gluconate solution is added to both sides (inner & outer wells). After 2 hrs, resistance is measured with a multimeter and Ag/AgCl electrodes to ensure that a bilayer had formed. The K-gluconate solution in the inner well is removed and 5 μl of hog or stimulated rabbit gastric vesicles are added to the inner well and left for 1 hr. Resistance is then measured in 100 mM K-gluconate, KCL, NaCl and NMDGCI. To measure H^+ transport, 200 μl 10 mM KCL is added to the outer well and 100 μl of 100 mM KCL, 10 mM HEPES pH 7.4 is added to the inner well. pH of the medium in the outer well (pHo) is measured using a PHR-146 pH Electrode (LAZAR Research Labs. Los Angeles, Calif.) and an Accumet pH meter 910 (Fisher, Pittsburgh, Pa.). When the pHo is almost constant, 5 μl 100 mM MGATP solution and 1 μl 10 mg/ml valinomycin are added to the inner well and pHo was followed. […] The change in pHo over time is recorded using AXOTAPE (Union City, Calif.).

gastric H/K ATPase [2] = biological target: T2, gastric H/K ATPase (Sus scrofa, UniProt P19156); assay: H+ transport (acidification) by hog gastric H/K ATPase vesicles reconstituted in phospholipid-coated PC filters; assay type: biochemical
T2 construct: Hog and stimulated rabbit gastric membrane vesicles are isolated according to methods known in the art; from tissue; host or cells: hog gastric membrane vesicles
Protocol: as §1

[3] = tested on: gastric proton pump H/K ATPase; assay: Example 1: ATP-dependent transport of acid across the bilayer with reconstituted gastric proton pump; assay type: biochemical; settings: 100 μm SCH-28080
Text: This example illustrates an embodiment of bilayer formation, membrane transport reconstitution and testing for functionality. The bilayer is formed over pores of a polycarbonate substrate comprising naturally present pores or drilled holes. Millipore micro porous polycarbonates of various pore sizes (0.4, 3, 5, and 8 μm, e.g.) are commercially available, and a multi-well porous plastic plate with 10-100 μm Lenox-laser drilled holes (1/well) is available from Procter & Gamble Co. and is used for stable bilayer formation. Techniques for bilayer preparation are known by those of ordinary skill in the art. […] The bilayer is verified according to the gramicidin-D (a cation selective antibiotic) method wherein electrical resistance is monitored to observe the effect of gramicidin in reducing the resistance of the membrane. Current flow is measured by placing one electrode in the desired well and one in the surrounding liquid outside the well. […]
The verified bilayer is incubated with vesicles comprising H/K ATPase or Kv1.5 potassium channels. 3 μl of vesicles is added to each well which was determined to have a verified bilayer. Spontaneous fusion with the bilayer is allowed to proceed for 30 minutes to one hour, at which point H/K ATPase induced acidification or potassium ion currents across the bilayer membrane are measured. […] The current is measured as described earlier, after one hour. […]

[4] = Assay of lipid bilayer formation: resistance across phospholipid-coated porous membranes with gramicidin D
Protocol: (§2) Bilayer formation is studied using PC, PETE and PLLA membranes (area=0.3 cm^2). Phospholipid bilayers are made by adding […] of 3:1 POPS:POPE (40 mg/ml) in n-decane to the membranes and waiting for 30 min. 100 mM KCL/10 mM HEPES (pH 7.4), is then added to both sides of the membrane (150 μl inside insert or well; 200 outside solution) and left for 30 minutes. A multimeter and Ag/AgCl reference electrodes are used to measure the resistance across the phospholipid-coated membranes. When gramicidin D is used, it is mixed with the lipids to a final concentration of 1 μg/ml. 10 μl of the lipid/gramicidin mixture is added to the membranes. After 30 minutes medium is added to both sides of the lipid-coated membrane (both inner and outer wells) and left for another 30 minutes. Resistances of the lipid-coated membranes are measured with two different media bathing the lipid bilayer on both sides: 100 mM KCl/10 mM HEPES (pH 7.4) and 100 mMNMDGCI/10 mM HEPES (pH 7.4). Reconstitution of gramicidin D is also done using the 96-well plastic plate with laser drilled holes and current is measured as described below.

[5] = Ion flux across the inventive membrane with gramicidin D as ionophore
[6] = Gramicidin D reconstituted in the phospholipid bilayer in 50 μm holes of the 96-well plastic plate, current measurement; settings: KCl medium, +70 mV
Protocol: as §2, with “below. […]” for “below.”

Kv1.5 K+ channels [7] = biological target: T3, Kv1.5 K+ channels (Homo sapiens, UniProt P22460); assay: Kv1.5 K+ channel vesicles reconstituted in phospholipid-coated leached PLLA membranes, resistance measurement; assay type: biochemical; settings: 1 μM compound B, KCl, n=8; PL alone 7.39, PL+Kv1.5 vesicles 0.55 MΩ
T3 construct: expressed in transfected cells; host or cells: Ltk- mouse fibroblast cells, stably transfected, dexamethasone-induced; plasma membrane vesicles
Protocol: as §2
Reconstitution of Kv1.5 K^+ channels is also carried out using lipid coated PLLA membranes (area=0.3 cm2) and resistance is measured as described in the previous section. Effects of compound B are also tested.

Kv1.5 K+ channels [8] = biological target: T3, Kv1.5 K+ channels; assay: Kv1.5 K+ channel vesicles reconstituted in phospholipid bilayers in 50 μm laser-drilled holes of a 96-well plastic plate, current measurement; assay type: biochemical
Protocol: The verified bilayer is incubated with vesicles comprising H/K ATPase or Kv1.5 potassium channels. 3 μl of vesicles is added to each well which was determined to have a verified bilayer. Spontaneous fusion with the bilayer is allowed to proceed for 30 minutes to one hour, at which point H/K ATPase induced acidification or potassium ion currents across the bilayer membrane are measured. A desired amount of […] is added to the well (for example, add 90 μl of 100 mM KCl for […], add 92.5 μl of 100 MM KCl for 750 nM). The well tray is placed back into the holder with the 100 mM KCl and current flow is measured as before. Add a desired amount of a suitable 10 μM inhibitor to achieve a final desired concentration with the final volume of 100 μl. When the gastric proton pump H/K ATPase is reconstituted on the bilayer over the pores, ATP-dependent transport of acid across the bilayer is observed that can be inhibited by 100 μm SCH-28080 (a specific inhibitor of the H/K ATPase). The current is measured as described earlier, after one hour. […] Ion currents are not present when the vesicles lack Kv1.5 or when Kv1.5 vesicles are boiled.
To investigate reconstitution of ion channels, plasma membrane vesicles containing Kv1.5, K^+ channels are prepared from an Ltk^− cell line (mouse fibroblast cells) stably overexpressing Kv1.5 K^+ channels under the control of a dexamethasone promoter as previously described (Matsuno, et al. Biochem. Biophys. Acta 1665 (2004) 184-190). Dexamethasone-specific induction of channel expression is totally specific for Kv1.5 channels. […] A 96-well plastic plate with laser drilled pores varying from 10-100 μm (1/well) is used. Well area is 0.3 cm^2. The phospholipid bilayer is made by adding 5 μl of 40 mg/ml 3:1 POPS:POPE in n-decane to each well. After 30 min 100 mM KCl/20 mM HEPES (pH 7.4) is added to both sides of the bilayer (both inner and outer wells). After a further 30 min, the solution from the inner well is removed and plasma membrane vesicles (5 μl) containing Kv1.5 K^+ channels are added to the lipid coated wells. After 30 min, 100 mM KCl/20 mM HEPES (pH 7.4) is returned to the well and currents across the bilayer are measured with an HS-2A headstage and Gene Clamp 500 amplifier (Axon Instruments, Foster City, Calif.) and filtered at 50 Hz. Voltages ranging from −80 to +70 mV are applied in 10-mV increments for 200 msec and electrical currents are recorded using pCLAMP version 5.5. When indicated, compound B, an inhibitor of Kv1.5 K^+ channels (see U.S. Pat. No. 6,174,908) is added.

T3 sequence (P22460 whole entry): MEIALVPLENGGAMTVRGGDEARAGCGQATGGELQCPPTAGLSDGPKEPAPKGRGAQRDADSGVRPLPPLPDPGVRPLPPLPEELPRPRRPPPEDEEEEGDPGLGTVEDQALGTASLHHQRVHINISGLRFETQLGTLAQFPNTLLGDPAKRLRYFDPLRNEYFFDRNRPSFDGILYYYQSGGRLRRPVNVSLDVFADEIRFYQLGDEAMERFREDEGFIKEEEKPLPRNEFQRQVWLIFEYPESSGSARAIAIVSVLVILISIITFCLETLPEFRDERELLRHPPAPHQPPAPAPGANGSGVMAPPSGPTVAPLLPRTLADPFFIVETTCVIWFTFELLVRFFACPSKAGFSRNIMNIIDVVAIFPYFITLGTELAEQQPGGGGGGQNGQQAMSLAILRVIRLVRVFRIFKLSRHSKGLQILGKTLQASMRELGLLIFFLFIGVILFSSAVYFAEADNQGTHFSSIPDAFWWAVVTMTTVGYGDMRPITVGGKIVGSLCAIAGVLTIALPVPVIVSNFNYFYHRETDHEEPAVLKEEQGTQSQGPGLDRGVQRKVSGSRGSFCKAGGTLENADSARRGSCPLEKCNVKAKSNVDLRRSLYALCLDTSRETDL
T2 sequence (P19156 whole entry): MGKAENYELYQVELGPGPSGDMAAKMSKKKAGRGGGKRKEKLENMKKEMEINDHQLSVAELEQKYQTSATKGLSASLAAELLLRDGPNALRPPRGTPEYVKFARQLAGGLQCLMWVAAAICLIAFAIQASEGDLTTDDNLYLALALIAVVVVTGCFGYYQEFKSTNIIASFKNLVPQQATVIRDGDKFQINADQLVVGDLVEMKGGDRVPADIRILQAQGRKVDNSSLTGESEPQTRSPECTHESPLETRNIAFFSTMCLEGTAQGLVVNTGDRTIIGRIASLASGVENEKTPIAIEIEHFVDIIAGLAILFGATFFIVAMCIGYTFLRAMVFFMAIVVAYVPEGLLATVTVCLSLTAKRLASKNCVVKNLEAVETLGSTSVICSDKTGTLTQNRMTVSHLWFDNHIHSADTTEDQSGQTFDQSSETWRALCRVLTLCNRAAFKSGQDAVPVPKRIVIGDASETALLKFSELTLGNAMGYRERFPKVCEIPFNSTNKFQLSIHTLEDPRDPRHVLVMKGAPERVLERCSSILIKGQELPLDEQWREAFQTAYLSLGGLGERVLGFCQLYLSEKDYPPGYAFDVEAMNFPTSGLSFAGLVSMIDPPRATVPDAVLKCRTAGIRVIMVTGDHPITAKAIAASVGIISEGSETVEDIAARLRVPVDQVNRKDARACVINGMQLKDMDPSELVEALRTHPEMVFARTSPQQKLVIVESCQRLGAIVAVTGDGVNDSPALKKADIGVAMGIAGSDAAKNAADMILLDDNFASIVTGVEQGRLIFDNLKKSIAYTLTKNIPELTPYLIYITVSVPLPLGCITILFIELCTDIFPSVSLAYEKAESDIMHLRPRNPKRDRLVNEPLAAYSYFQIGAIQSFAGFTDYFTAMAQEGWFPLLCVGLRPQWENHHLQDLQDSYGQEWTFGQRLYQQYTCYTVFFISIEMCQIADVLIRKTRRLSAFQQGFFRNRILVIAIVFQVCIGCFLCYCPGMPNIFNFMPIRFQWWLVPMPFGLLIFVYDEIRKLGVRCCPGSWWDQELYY
T2 sequence (P18434 whole entry partner): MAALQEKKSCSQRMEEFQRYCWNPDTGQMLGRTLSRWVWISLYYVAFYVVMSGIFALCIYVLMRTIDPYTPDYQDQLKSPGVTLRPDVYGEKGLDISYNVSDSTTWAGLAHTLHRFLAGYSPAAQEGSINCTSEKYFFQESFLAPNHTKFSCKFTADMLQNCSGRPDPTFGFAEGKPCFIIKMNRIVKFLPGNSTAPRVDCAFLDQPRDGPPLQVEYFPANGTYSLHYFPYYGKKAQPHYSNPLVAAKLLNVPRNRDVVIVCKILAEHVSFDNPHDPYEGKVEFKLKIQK
T1 sequence (P27112 whole entry): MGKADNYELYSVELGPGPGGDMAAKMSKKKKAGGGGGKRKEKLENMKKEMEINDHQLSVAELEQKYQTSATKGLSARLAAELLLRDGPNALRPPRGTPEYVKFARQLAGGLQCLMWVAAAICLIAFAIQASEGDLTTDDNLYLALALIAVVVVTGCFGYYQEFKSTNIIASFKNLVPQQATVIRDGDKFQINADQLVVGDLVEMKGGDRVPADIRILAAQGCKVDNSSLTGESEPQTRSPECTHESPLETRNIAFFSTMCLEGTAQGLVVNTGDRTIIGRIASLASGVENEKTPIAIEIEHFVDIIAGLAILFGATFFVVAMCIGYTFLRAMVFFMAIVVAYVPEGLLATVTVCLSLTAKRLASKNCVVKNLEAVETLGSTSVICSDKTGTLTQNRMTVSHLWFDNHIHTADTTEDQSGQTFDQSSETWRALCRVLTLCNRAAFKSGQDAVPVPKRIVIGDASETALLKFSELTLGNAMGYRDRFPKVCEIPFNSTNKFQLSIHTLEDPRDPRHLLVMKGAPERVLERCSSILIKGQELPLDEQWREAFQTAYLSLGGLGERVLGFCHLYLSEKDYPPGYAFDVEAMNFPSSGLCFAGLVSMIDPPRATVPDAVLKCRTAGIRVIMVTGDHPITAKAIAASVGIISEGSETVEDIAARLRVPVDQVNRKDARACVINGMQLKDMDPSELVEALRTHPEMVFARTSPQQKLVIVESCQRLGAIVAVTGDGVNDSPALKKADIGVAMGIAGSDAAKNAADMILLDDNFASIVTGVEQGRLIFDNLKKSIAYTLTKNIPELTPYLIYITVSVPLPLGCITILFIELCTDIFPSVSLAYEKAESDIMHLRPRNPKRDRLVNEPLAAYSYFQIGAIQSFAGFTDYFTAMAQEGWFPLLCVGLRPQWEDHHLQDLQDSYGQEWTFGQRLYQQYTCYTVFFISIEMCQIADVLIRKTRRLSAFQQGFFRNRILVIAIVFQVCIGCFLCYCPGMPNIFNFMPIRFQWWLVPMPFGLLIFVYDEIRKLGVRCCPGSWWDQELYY
T1 sequence (P18597 whole entry partner): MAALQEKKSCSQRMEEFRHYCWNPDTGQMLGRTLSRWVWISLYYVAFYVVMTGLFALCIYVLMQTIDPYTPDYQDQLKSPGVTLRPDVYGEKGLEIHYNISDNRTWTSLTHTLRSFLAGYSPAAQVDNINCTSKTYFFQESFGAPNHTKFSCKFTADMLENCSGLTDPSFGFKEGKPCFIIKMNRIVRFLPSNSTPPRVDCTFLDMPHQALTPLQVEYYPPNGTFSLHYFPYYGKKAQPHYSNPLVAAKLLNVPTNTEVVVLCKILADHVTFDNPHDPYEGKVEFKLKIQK

**Q.** What does the source list for `Cc1nc2c(OCc3ccccc3)cccn2c1CC#N` [SCH28080]?
**A.** effect on H+ flux (rate of acidification) (gastric H/K ATPase [1]): significantly reduces; effect on H+ flux (rate of acidification) (gastric H/K ATPase [2]; 100 μM SCH28080, hog gastric vesicles, P<0.05): significantly reduces; effect on acidification of outer well medium (representative experiment) (gastric H/K ATPase [2]; 100 μM SCH28080, hog vesicles, 5 mM MgATP, 100 μg/ml valinomycin): blocks acidification; effect on ATP-dependent transport of acid across the bilayer [3]: inhibited

**Q.** With gramicidin D as the compound, how does the “resistance with gramicidin D, PETE membranes” value ([4]; KCl, n=5, PL alone 39.25 MΩ) read?
**A.** 5.41±1.11 MΩ

**Q.** What about the “change of resistance with gramicidin D, PETE membranes” value ([4]; NMDGCl) of the same compound?
**A.** did not change

**Q.** And the “resistance after gramicidin D, PC filters with 3, 5 and 8 μm pores” value ([4]; presence of K+ (100 mM KCl), P<0.005)?
**A.** virtually zero

**Q.** And the “resistance on addition of gramicidin D, leached PLLA membranes” value ([4]; presence of K+, n=6, PL alone 11.38 MΩ)?
**A.** 0.23±0.15 MΩ

**Q.** And the “change of resistance on addition of gramicidin D, leached PLLA membranes” value ([4]; presence of NMDG+)?
**A.** unaffected

**Q.** What about the “reduction of resistance by gramicidin D, PC filters with 3, 5 and 8 μm pores” value ([4]; presence of NMDG+ (impermeant cation)) of the same compound?
**A.** not

**Q.** And the “flux across the inventive membrane” value [5]?
**A.** 10^8 ions per second, per gramicidin D molecule

**Q.** And the “current with gramicidin D” value [6]?
**A.** about 30 μVA

**Q.** For `COc1ccc(CCN2C(=O)CSC2c2ccc(C)c(C)c2)cc1` (centres unmarked) [compound B, 2-(3,4-dimethyphenyl)-3-[2-(4-methoxyphenyl)ethyl]-thiazolidin4-one], which “resistance of PLLA membrane + phospholipids + Kv1.5 vesicles after inhibitor” value (Kv1.5 K+ channels [7]) is on record?
**A.** 4.13±0.52 MΩ

**Q.** What about the “effect on Kv1.5 K+ channel currents (I-V curve)” value (Kv1.5 K+ channels [8]; 200 nM and 500 nM compound B) of the same compound?
**A.** inhibited

**Q.** What about the “effect on Kv1.5 K+ current after addition of Kv1.5 vesicles” value (Kv1.5 K+ channels [8]; 1 μM compound B, P<0.001) of the same compound?
**A.** inhibited

**Q.** And the “effect on potassium ion currents of membrane fused with Kv1.5 vesicles (Example 1)” value (Kv1.5 K+ channels [8]; concentration not given)?
**A.** inhibited

**Q.** What about the IC50 (Kv1.5 K+ channels [8]; sigmoidal dose-response plot, n=6, 100 mM KCl/20 mM HEPES pH 7.4, read-out: IC50, Kv1.5-mediated K+ currents expressed as ΔI at 70 mV as % maximum) of the same compound?
**A.** 170 ± 40 nM
